Where two headings read alike, the source gives them in different places. Positions of bridges follow the written chain, without caps; N, C: chain ends. Non-standard residues stand in square brackets, D forms with d. Residues, ends and D or L forms follow the SMILES beside them. ξ: configuration not given here. *: point of attachment. Phe(4-guanidino) = N=C(N)Nc1ccc(C[C@H](N)C(=O)O)cc1; Phe(3,4,5-F3) = N[C@@H](Cc1cc(F)c(F)c(F)c1)C(=O)O; Phe(3,4-Cl2) = N[C@@H](Cc1ccc(Cl)c(Cl)c1)C(=O)O; Phe(4-Cl) = N[C@@H](Cc1ccc(Cl)cc1)C(=O)O; Dopa = N[C@@H](Cc1ccc(O)c(O)c1)C(=O)O; Bta = N[C@@H](Cc1csc2ccccc12)C(=O)O; Cyclobutanecarbonyl = O=C(C1CCC1)*; Hyp = O=C(O)[C@@H]1C[C@@H](O)CN1; NMeF = CN[C@@H](Cc1ccccc1)C(=O)O; 3Pal = N[C@@H](Cc1cccnc1)C(=O)O; dNMeNle = CCCC[C@@H](NC)C(=O)O; NMeNle = CCCC[C@H](NC)C(=O)O; NMeM = CN[C@@H](CCSC)C(=O)O; NMeS = CN[C@@H](CO)C(=O)O; Pip = O=C(O)[C@@H]1CCCCN1; NMeA = CN[C@@H](C)C(=O)O; Orn = NCCC[C@H](N)C(=O)O; Dab = NCC[C@H](N)C(=O)O; Dap = NC[C@H](N)C(=O)O; Aib = CC(C)(N)C(=O)O; ξP = O=C(O)C1CCCN1; OtBu = CC(C)(C)O*; ξC = NC(CS)C(=O)O; Sar = CNCC(=O)O
What was measured:
[1] = target: T1, LK35.2-hPD-L1 cells / PE-labeled PD-1-Ig (Homo sapiens, UniProt Q9NZQ7); test: LK35.2-hPD-L1 cell binding high-content screening assay; assay type: cell-based; details: cluster symbol, read-out: CBA IC50 cluster
T1 construct: expressed in transfected cells; host or cells: LK35.2 mouse B cell line
T1 sequence (Q9NZQ7 19-290): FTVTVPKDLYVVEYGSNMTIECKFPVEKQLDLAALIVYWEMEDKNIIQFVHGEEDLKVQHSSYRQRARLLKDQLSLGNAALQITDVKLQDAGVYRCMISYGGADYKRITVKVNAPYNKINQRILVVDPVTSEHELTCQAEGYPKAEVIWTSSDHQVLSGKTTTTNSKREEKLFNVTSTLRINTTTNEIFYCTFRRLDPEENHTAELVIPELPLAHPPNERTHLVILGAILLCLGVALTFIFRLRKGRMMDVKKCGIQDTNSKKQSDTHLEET
Summary of the method: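 Binding of PE-conjugated human PD-1-Ig (1 nM final) to human PD-L1 stably expressed on a mouse B-cell line (LK35.2) was measured by high-content imaging after washes. Compound and labeled PD-1-Ig were co-incubated 1 h at 37 °C with cells in RPMI/10% FCS.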

Human PD-L1/PD-1 = target: T2, Human PD-L1/PD-1 (Homo sapiens, UniProt Q9NZQ7); test: HTRF PD-1-Ig/PD-L1-His binding assay (human PD-L1); details: cluster symbol; read-out: HTRF IC50 cluster
T2 construct: made in house; host or cells: HEK293T
T2 sequence (Q9NZQ7 with tags, fused parts or gaps): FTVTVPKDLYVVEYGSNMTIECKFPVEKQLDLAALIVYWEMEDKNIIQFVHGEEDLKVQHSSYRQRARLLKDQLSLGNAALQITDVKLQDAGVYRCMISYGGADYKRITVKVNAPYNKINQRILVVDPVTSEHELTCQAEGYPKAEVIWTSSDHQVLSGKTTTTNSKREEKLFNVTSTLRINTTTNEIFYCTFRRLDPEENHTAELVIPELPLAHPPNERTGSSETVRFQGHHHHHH
Summary of the method: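 Ig- and His-fused extracellular PD-1/PD-L1 binding in BSA/Tween-20 dPBS. HTRF with Eu anti-Ig (1 nM final) and APC anti-His (20 nM final).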

[2] = cell binding assay, cell line not given
[3] = cell line of CBA not given (LK35.2-hPD-L1 or 293T-hPD-L1)

IC50 [1, 2] [nM]	IC50 (Human PD-L1/PD-1) [nM]	IC50 [1, 3] [nM]	SMILES
0.158 to 4.71	0.385 to 6.74	–	CCCC[C@H]1C(=O)N(C)CC(=O)N[C@@H](CC(=O)O)C(=O)N[C@@H](C(C)C)C(=O)N(C)[C@@H](Cc2ccccc2)C(=O)N[C@@H](Cc2ccc(O)cc2)C(=O)N(C)CC(=O)N[C@@H](Cc2c[nH]c3ccccc23)C(=O)N[C@@H](Cc2ccc(O)c(O)c2)C(=O)N[C@@H](CC(C)C)C(=O)N[C@H](C(=O)NCC(N)=O)CSCC(=O)N[C@@H](Cc2cc(F)c(F)c(F)c2)C(=O)N(C)[C@@H](Cc2ccccc2)C(=O)N1C [Example 3609] ({CH2CO}-[Phe(3,4,5-F3)][NMeF][NMeNle][Sar]DV[NMeF]Y[Sar]W[Dopa]LCG-NH2; thioether N-13)
–	> 30.5	> 74.3	CC(C)C[C@@H]1NC(=O)[C@H](Cc2c[nH]cn2)NC(=O)[C@@H]2CCCN2C(=O)[C@H](CC(N)=O)NC(=O)[C@H](C)N(C)C(=O)[C@H](Cc2ccccc2)NC(=O)CSC[C@@H](C(=O)NCC(N)=O)NC(=O)[C@H](CCCNC(=N)N)NC(=O)[C@H](C)N(C)C(=O)[C@H](CNC(=O)C2CCC2)NC(=O)[C@H](Cc2c[nH]c3ccccc23)NC(=O)[C@H](CO)NC(=O)[C@H](Cc2c[nH]c3ccccc23)NC(=O)CN(C)C1=O [Example 1033] ({CH2CO}-F[NMeA]NPHL[Sar]WSW[Dap](Cyclobutanecarbonyl)[NMeA]RCG-NH2; thioether N-14)
> 74.3	> 30.5	–	CCCC[C@H]1C(=O)N(C)CC(=O)N[C@@H](CC(=O)OC(C)(C)C)C(=O)N[C@@H](C(C)C)C(=O)N(C)[C@@H](Cc2ccccc2)C(=O)N[C@@H](Cc2ccc(O)cc2)C(=O)N(C)CC(=O)N[C@@H](Cc2c[nH]c3ccccc23)C(=O)N[C@@H](Cc2ccc(O)cc2)C(=O)N[C@@H](CC(C)C)C(=O)N[C@H](C(=O)NCC(N)=O)CSCC(=O)N[C@@H](Cc2ccccc2)C(=O)N[C@@H](Cc2cccnc2)C(=O)N1C [Example 3604] ({CH2CO}-F[3Pal][NMeNle][Sar]D(OtBu)V[NMeF]Y[Sar]WYLCG-NH2; thioether N-13)
–	> 30.5	> 74.3	CCCC[C@H]1C(=O)N(C)[C@@H](CCCC)C(=O)N[C@@H](CCCNC(=N)N)C(=O)N[C@H](C(=O)NCC(N)=O)CSCC(=O)N[C@@H](Cc2ccccc2)C(=O)N(C)[C@@H](C)C(=O)N[C@@H](CC(N)=O)C(=O)N2CCC[C@H]2C(=O)N[C@@H](Cc2cnc[nH]2)C(=O)N[C@@H](CC(C)C)C(=O)N(C)CC(=O)N[C@@H](Cc2c[nH]c3ccccc23)C(=O)NC(C)(C)C(=O)N[C@@H](Cc2c[nH]c3ccccc23)C(=O)N1C [Example 1116] ({CH2CO}-F[NMeA]NPHL[Sar]W[Aib]W[NMeNle][NMeNle]RCG-NH2; thioether N-14)
4.78 to 72.9	0.385 to 6.74	–	CCCC[C@H]1C(=O)N(C)[C@@H](CCCC)C(=O)NCC(=O)N[C@H](C(=O)NCC(N)=O)CSCC(=O)N[C@@H](Cc2ccc(O)cc2)C(=O)N(C)[C@@H](C)C(=O)N[C@@H](CC(N)=O)C(=O)N2CCC[C@H]2C(=O)N[C@@H](Cc2c[nH]cn2)C(=O)N[C@@H](CCC(N)=O)C(=O)N2C[C@H](O)C[C@H]2C(=O)N[C@@H](Cc2c[nH]c3ccccc23)C(=O)N[C@@H](CO)C(=O)N[C@@H](Cc2c[nH]c3ccccc23)C(=O)N1C [Example 5125] ({CH2CO}-Y[NMeA]NPHQ[Hyp]WSW[NMeNle][NMeNle]GCG-NH2; thioether N-14)
> 74.3	> 30.5	–	CCCC[C@H]1C(=O)N(C)[C@@H](CCCC)C(=O)N[C@@H](CCCNC(=N)N)C(=O)N[C@H](C(=O)NCC(N)=O)CSCC(=O)N[C@@H](Cc2ccc(N=C(N)N)cc2)C(=O)N(C)[C@@H](C)C(=O)N[C@@H](CC(N)=O)C(=O)N2CCC[C@H]2C(=O)N[C@@H](Cc2cnc[nH]2)C(=O)N[C@@H](CC(C)C)C(=O)N2C[C@H](O)C[C@H]2C(=O)N[C@@H](Cc2c[nH]c3ccccc23)C(=O)N[C@@H](CO)C(=O)N[C@@H](Cc2c[nH]c3ccccc23)C(=O)N1C [Example 7049] ({CH2CO}-[Phe(4-guanidino)][NMeA]NPHL[Hyp]WSW[NMeNle][NMeNle]RCG-NH2; thioether N-14)
–	> 30.5	> 74.3	CCCC[C@H]1C(=O)N(C)CC(=O)N[C@@H](CC(=O)O)C(=O)N[C@@H](C(C)C)C(=O)N(C)[C@@H](Cc2ccccc2)C(=O)N[C@@H](Cc2ccc(O)cc2)C(=O)N(C)CC(=O)N[C@@H](Cc2c[nH]c3ccccc23)C(=O)N[C@@H](Cc2ccc(Cl)cc2)C(=O)N[C@@H](CC(C)C)C(=O)N[C@H](C(=O)NCC(N)=O)CSCC(=O)N[C@@H](Cc2ccccc2)C(=O)N(C)[C@@H](Cc2ccccc2)C(=O)N1C [Example 3099] ({CH2CO}-F[NMeF][NMeNle][Sar]DV[NMeF]Y[Sar]W[Phe(4-Cl)]LCG-NH2; thioether N-13)
–	6.76 to 30.3	> 74.3	CCCC[C@@H]1C(=O)N(C)[C@H](CCCC)C(=O)N[C@@H](CCCN)C(=O)N[C@@H](C(=O)NCC(N)=O)CSCC(=O)N[C@@H](Cc2ccc(O)cc2)C(=O)N2CCCC2C(=O)N[C@H](CC(=O)O)C(=O)N2CCC[C@H]2C(=O)N[C@H](Cc2c[nH]cn2)C(=O)N[C@@H](CCC(=O)O)C(=O)N2CCCC2C(=O)N[C@H](Cc2c[nH]c3ccccc23)C(=O)N[C@@H](CCN)C(=O)N[C@@H](Cc2c[nH]c3ccccc23)C(=O)N1C (stereo partly drawn) [Example 1216] ({CH2CO}-Y[ξP][dD]P[dH]E[ξP][dW][Dab]W[dNMeNle][dNMeNle][Orn][dC]G-NH2; thioether N-14)
0.158 to 4.71	0.385 to 6.74	–	CCCC[C@H]1C(=O)N(C)[C@@H](CCSC)C(=O)N[C@@H](CCCNC(=N)N)C(=O)NC(C(=O)NCC(N)=O)CSCC(=O)N[C@@H](Cc2ccc(O)cc2)C(=O)N(C)[C@@H](C)C(=O)N[C@@H](CC(N)=O)C(=O)N2CCC[C@H]2C(=O)N[C@@H](CN)C(=O)N[C@@H](CC(C)C)C(=O)N2CCC[C@H]2C(=O)N[C@@H](Cc2c[nH]c3ccccc23)C(=O)N[C@@H](CO)C(=O)N[C@@H](Cc2csc3ccccc23)C(=O)N1C (stereo partly drawn) [Example 9082] ({CH2CO}-Y[NMeA]NP[Dap]LPWS[Bta][NMeNle][NMeM]R[ξC]G-NH2; thioether N-14)
–	> 30.5	> 74.3	CCCC[C@H]1C(=O)N(C)[C@@H](CCCC)C(=O)N[C@@H](CCCNC(=N)N)C(=O)N[C@H](C(=O)NCC(N)=O)CSCC(=O)N[C@@H](Cc2ccccc2)C(=O)N(C)[C@@H](C)C(=O)N[C@@H](CC(N)=O)C(=O)N2CCC[C@H]2C(=O)N[C@@H](Cc2cnc[nH]2)C(=O)N[C@@H](CC(C)C)C(=O)N(C)CC(=O)N[C@@H](Cc2c[nH]c3ccccc23)C(=O)N[C@@H](Cc2cnc[nH]2)C(=O)N[C@@H](Cc2c[nH]c3ccccc23)C(=O)N1C [Example 1068] ({CH2CO}-F[NMeA]NPHL[Sar]WHW[NMeNle][NMeNle]RCG-NH2; thioether N-14)
–	6.76 to 30.3	4.78 to 72.9	CCCC[C@H]1C(=O)N(C)[C@@H](CCCC)C(=O)N[C@@H](CCCNC(=N)N)C(=O)N[C@H](C(=O)NCC(N)=O)CSCC(=O)N[C@@H](Cc2ccc(Cl)c(Cl)c2)C(=O)N(C)[C@@H](C)C(=O)N[C@@H](CC(N)=O)C(=O)N2CCC[C@H]2C(=O)N[C@@H](Cc2cnc[nH]2)C(=O)N[C@@H](CC(C)C)C(=O)N(C)CC(=O)N[C@@H](Cc2c[nH]c3ccccc23)C(=O)N[C@@H](CO)C(=O)N[C@@H](Cc2c[nH]c3ccccc23)C(=O)N1C [Example 1103] ({CH2CO}-[Phe(3,4-Cl2)][NMeA]NPHL[Sar]WSW[NMeNle][NMeNle]RCG-NH2; thioether N-14)
0.158 to 4.71	0.385 to 6.74	–	CCCC[C@H]1C(=O)N(C)[C@@H](CCCC)C(=O)N[C@@H](CCCNC(=N)N)C(=O)NC(C(=O)NCC(N)=O)CSCC(=O)N[C@@H](Cc2ccc(O)cc2)C(=O)N(C)[C@@H](C)C(=O)N[C@@H](CC(N)=O)C(=O)N2CCC[C@H]2C(=O)N[C@@H](Cc2cnc[nH]2)C(=O)N[C@@H](CC(N)=O)C(=O)N2C[C@H](O)C[C@H]2C(=O)N[C@@H](Cc2c[nH]c3ccccc23)C(=O)N[C@@H](CO)C(=O)N[C@@H](Cc2c[nH]c3ccccc23)C(=O)N1C (stereo partly drawn) [Example 9065] ({CH2CO}-Y[NMeA]NPHN[Hyp]WSW[NMeNle][NMeNle]R[ξC]G-NH2; thioether N-14)
0.158 to 4.71	0.385 to 6.74	–	CCCC[C@H]1C(=O)N(C)[C@@H](CO)C(=O)N[C@@H](CCCNC(=N)N)C(=O)NC(C(=O)NCC(N)=O)CSCC(=O)N[C@@H](Cc2ccc(O)cc2)C(=O)N(C)[C@@H](C)C(=O)N[C@@H](CC(N)=O)C(=O)N2CCC[C@H]2C(=O)N[C@@H](Cc2cnc[nH]2)C(=O)N[C@@H](CC(C)C)C(=O)N2CCC[C@H]2C(=O)N[C@@H](Cc2c[nH]c3ccccc23)C(=O)N[C@@H](CO)C(=O)N[C@@H](Cc2csc3ccccc23)C(=O)N1C (stereo partly drawn) [Example 9044] ({CH2CO}-Y[NMeA]NPHLPWS[Bta][NMeNle][NMeS]R[ξC]G-NH2; thioether N-14)
–	6.76 to 30.3	> 74.3	CCCC[C@H]1C(=O)N(C)[C@@H](CCCC)C(=O)N[C@@H](C)C(=O)N[C@H](C(=O)NCC(=O)O)CSCC(=O)N[C@@H](Cc2ccc(O)cc2)C(=O)N(C)[C@@H](C)C(=O)N[C@@H](CC(N)=O)C(=O)N2CCC[C@H]2C(=O)N[C@@H](Cc2cnc[nH]2)C(=O)N[C@@H](CC(C)C)C(=O)N[C@@H](CCCN)C(=O)N[C@@H](Cc2c[nH]c3ccccc23)C(=O)N[C@@H](CO)C(=O)N[C@@H](Cc2c[nH]c3ccccc23)C(=O)N1C [Example 1154]
–	> 30.5	4.78 to 72.9	CCCC[C@H]1C(=O)N(C)[C@@H](CCCC)C(=O)N[C@@H](CCCNC(=N)N)C(=O)N[C@H](C(=O)NCC(N)=O)CSCC(=O)N[C@@H](Cc2ccccc2)C(=O)N(C)[C@@H](C)C(=O)N[C@@H](CC(N)=O)C(=O)N2CCC[C@H]2C(=O)N[C@@H](Cc2cnc[nH]2)C(=O)N[C@@H](CC(C)C)C(=O)N2CCCC[C@H]2C(=O)N[C@@H](Cc2c[nH]c3ccccc23)C(=O)N[C@@H](CO)C(=O)N[C@@H](Cc2c[nH]c3ccccc23)C(=O)N1C [Example 1196] ({CH2CO}-F[NMeA]NPHL[Pip]WSW[NMeNle][NMeNle]RCG-NH2; thioether N-14)

Reference: patent US9850283B2, “Macrocyclic inhibitors of the PD-1/PD-L1 and CD80(B7-1)/PD-L1 protein/protein interactions” (BRISTOL-MYERS SQUIBB COMPANY, priority 2013, dated 2017)
